How the values were obtained:
[1] = system: broadleaf weed and grass species; test: Example 2: overall statement on alcohol ethoxylates without glyphosate; format: in vivo; details: absence of glyphosate
Source text: (§1) The effect of different types of alcohol ethoxylate (branched—Genapol X-series, and unbranched—Genapol O-series, differing degrees of ethoxylation, see Table 3 below for more details), on unwanted vegetation (broadleaf weed and grass species), in the absence of glyphosate, was investigated and compared to untreated (water only) control weeds.
(§2) Troughs (measuring 16 cm by 13 cm by 5 cm) were filled with local field soil. Seeds of Veronica persica, Stellaria media, Trifolium repens and Poa annua were sown 24 days before application of test samples. Plants were grown in the glasshouse at 18 to 20° C. and 60% relative humidity. Application of alcohol ethoxylate test samples was carried out using a tracksprayer, spraying at a rate of 300 l/ha. Plants were kept in glasshouse and visual assessment of the estimated percentage damage to the plant was carried out 1, 7, and 14 days from application.
(§3) Damage was assessed as wilting, desiccation or any other kind of visual injury in comparison to the untreated control (water only).

[2] = system: broadleaf weeds and grasses; test: Example 1: overall statement on adjuvants alone; format: in vivo; details: 1 and 6 days after treatment, adjuvant alone
Method: (§4) The effect of different adjuvants (see Table 1 below) on the growth of broadleaf weed and grass species was investigated and compared to untreated (water only) control weeds.
(§5) Plates, each with 48 pots measuring 2.7 cm diameter and 5 cm deep, were filled with TKS1 growing media (Floragard, Germany). Seeds of Taraxacum officinale, Stellaria media or Poa annua were sown on the surface (10 to 20 per pot). Plants were grown in glasshouse at a temperature of 18 to 20° C. and at 60% relative humidity.
(§6) Plants were treated 15 (Stellaria, Poa) and 34 (Taraxacum) days after sowing with 60 μl of a 1.25, 2.5, 5 and 10% (w/v) solution of adjuvant using a hand airbrush.
(§7) Visual assessment of the percentage damage to the plant was carried out 1 day and 6 days from application.
as §3

[3] = system: broadleaf weeds and grasses; test: Example 4: overall statement, broadleaf weeds and grasses; format: in vivo; details: 2.5% w/v in admixture with glyphosate (Weedbuster)
Source text: The effect on broadleaf weeds and grasses of different concentrations of Genapol™ X060 (iso-tridecyl alcohol polyglycol ether with 6 moles of ethoxylation) in admixture with glyphosate was investigated.
Troughs (measuring 55 cm by 9 cm by 8.5 cm) were filled with local field soil. Seeds of Taraxacum officinale, Urtica dioica, Trifolium repens and Poa annua were sown 41 days before application of test samples, and seeds of Stellaria media, Veronica persica, Agropyron repens and Lolium multiflorum were sown 24 days before application of test samples. Plants were grown in the glasshouse at 18 to 20° C. and 60% relative humidity. One week before application of test samples, troughs were placed outside (but covered).
Application of test samples was carried out using a tracksprayer, spraying at a rate of 300 l/ha. Treated plants were kept outside and visual assessment of the percentage damage to the plants was carried out at 1, 7, 14, and 21 days after application.
as §3

[4] = system: Dandelion; test: Example 3: branched chain alcohol ethoxylates in admixture with glyphosate, visual % damage, 600 l/ha; format: in vivo; details: adjuvant where present 5% w/v
Method: (§8) The effects of different branched chain alcohol ethoxylates in admixture with glyphosate on both Dandelions and a mixture of grasses were investigated.
(§9) Dandelion samples and a mixture of grasses obtained from a meadow environment were planted into square 20 cm pots and kept and grown on in glasshouse for at least 2 weeks (18 to 20° C., 60% relative humidity).
(§10) Application of branched chain alcohol ethoxylate was carried out using a tracksprayer, spraying at a rate of 600 l/ha.
(§11) Visual assessment of the estimated percentage damage to the plant was carried out 1, 6, 13, and 20 days from application.
as §3

[5] = system: Taraxacum officinale; test: Example 1: adjuvants alone, visual % damage, pots in glasshouse; format: in vivo
Method: as §4, §5, §6, §7, §3

[6] = system: Stellaria media; test: as above; format: in vivo
Method: as §4, §5, §6, §7, §3

[7] = system: Poa annua; test: as above; format: in vivo
Method: as §4, §5, §6, §7, §3

[8] = system: Trifolium repens; test: Example 2: alcohol ethoxylate adjuvants without glyphosate, visual % damage, tracksprayer 300 l/ha; format: in vivo
Source text: as §1, §2, §3

[9] = system: Veronica persica; test: as above; format: in vivo
Source text: as §1, §2, §3

[10] = system: Stellaria media; test: as above; format: in vivo
Source text: as §1, §2, §3

[11] = system: Poa annua; test: as above; format: in vivo
Source text: as §1, §2, §3

[12] = system: Dandelions and a mixture of grasses; test: Example 3: overall statement, Dandelions and mixture of grasses; format: in vivo; details: absence of glyphosate, 5% w/v
Method: as §8, §9, §10, §11, §3

[13] = system: Grass mix; test: Example 3: branched chain alcohol ethoxylates in admixture with glyphosate, visual % damage, 600 l/ha; format: in vivo, mixture of grasses; details: adjuvant where present 5% w/v
Method: as §8, §9, §10, §11, §3

Iso-tridecyl alcohol polyglycol ether with 6 moles of ethoxylation [GenapolX060]
course of damage over time (recovery) [1]: the level of damage decreases from day 14 onwards | visual symptoms of phytotoxicity [2]: comparatively high level of visual symptoms of phytoxicity | rapid symptomology versus Roundup and Weedbuster [3]: more rapid symptomology against all weeds in comparison to Roundup | % Damage 1 daa Dandelion [4]: 40% | % Damage 6 daa Dandelion [4]: 50% | % Damage 13 daa Dandelion [4]: 30% | % Damage 20 daa Dandelion [4]: 20% | avg % damage 1 DAA Taraxacum officinale ([5]; adjuvant 1.25% w/v): 5% | avg % damage 6 DAA Taraxacum officinale ([5]; adjuvant 1.25% w/v): 20% | avg % damage 1 DAA Taraxacum officinale ([5]; adjuvant 2.5% w/v): 10% | avg % damage 6 DAA Taraxacum officinale ([5]; adjuvant 2.5% w/v): 20% | avg % damage 1 DAA Taraxacum officinale ([5]; adjuvant 5% w/v): 30% | avg % damage 6 DAA Taraxacum officinale ([5]; adjuvant 5% w/v): 40% | avg % damage 1 DAA Taraxacum officinale ([5]; adjuvant 10% w/v): 45% | avg % damage 6 DAA Taraxacum officinale ([5]; adjuvant 10% w/v): 35% | avg % damage 1 DAA Stellaria media ([6]; adjuvant 1.25% w/v): 25% | avg % damage 6 DAA Stellaria media ([6]; adjuvant 1.25% w/v): 35% | avg % damage 1 DAA Stellaria media ([6]; adjuvant 2.5% w/v): 30% | avg % damage 6 DAA Stellaria media ([6]; adjuvant 2.5% w/v): 40% | avg % damage 1 DAA Stellaria media ([6]; adjuvant 5% w/v): 35% | avg % damage 6 DAA Stellaria media ([6]; adjuvant 5% w/v): 65% | avg % damage 1 DAA Stellaria media ([6]; adjuvant 10% w/v): 60% | avg % damage 6 DAA Stellaria media ([6]; adjuvant 10% w/v): 85% | avg % damage 1 DAA Poa annua ([7]; adjuvant 1.25% w/v): 45% | avg % damage 6 DAA Poa annua ([7]; adjuvant 1.25% w/v): 50% | avg % damage 1 DAA Poa annua ([7]; adjuvant 2.5% w/v): 55% | avg % damage 6 DAA Poa annua ([7]; adjuvant 2.5% w/v): 70% | avg % damage 1 DAA Poa annua ([7]; adjuvant 5% w/v): 75% | avg % damage 6 DAA Poa annua ([7]; adjuvant 5% w/v): 80% | avg % damage 1 DAA Poa annua ([7]; adjuvant 10% w/v): 70% | avg % damage 6 DAA Poa annua ([7]; adjuvant 10% w/v): 80% | mean % damage 1 daa Trifolium repens ([8]; adjuvant 1% w/v): 40% | mean % damage 7 daa Trifolium repens ([8]; adjuvant 1% w/v): 40% | mean % damage 14 daa Trifolium repens ([8]; adjuvant 1% w/v): 0% | mean % damage 1 daa Trifolium repens ([8]; adjuvant 1.5% w/v): 60% | mean % damage 7 daa Trifolium repens ([8]; adjuvant 1.5% w/v): 50% | mean % damage 14 daa Trifolium repens ([8]; adjuvant 1.5% w/v): 0% | mean % damage 1 daa Trifolium repens ([8]; adjuvant 2% w/v): 70% | mean % damage 7 daa Trifolium repens ([8]; adjuvant 2% w/v): 60% | mean % damage 14 daa Trifolium repens ([8]; adjuvant 2% w/v): 0% | mean % damage 1 daa Trifolium repens ([8]; adjuvant 2.5% w/v): 70% | mean % damage 7 daa Trifolium repens ([8]; adjuvant 2.5% w/v): 60% | mean % damage 14 daa Trifolium repens ([8]; adjuvant 2.5% w/v): 5% | mean % damage 1 daa Veronica persica ([9]; adjuvant 1% w/v): 10% | mean % damage 7 daa Veronica persica ([9]; adjuvant 1% w/v): 10% | mean % damage 14 daa Veronica persica ([9]; adjuvant 1% w/v): 5% | mean % damage 1 daa Veronica persica ([9]; adjuvant 1.5% w/v): 20% | mean % damage 7 daa Veronica persica ([9]; adjuvant 1.5% w/v): 20% | mean % damage 14 daa Veronica persica ([9]; adjuvant 1.5% w/v): 10% | mean % damage 1 daa Veronica persica ([9]; adjuvant 2% w/v): 70% | mean % damage 7 daa Veronica persica ([9]; adjuvant 2% w/v): 70% | mean % damage 14 daa Veronica persica ([9]; adjuvant 2% w/v): 50% | mean % damage 1 daa Veronica persica ([9]; adjuvant 2.5% w/v): 60% | mean % damage 7 daa Veronica persica ([9]; adjuvant 2.5% w/v): 40% | mean % damage 14 daa Veronica persica ([9]; adjuvant 2.5% w/v): 40% | mean % damage 1 daa Stellaria media ([10]; adjuvant 1% w/v): 5% | mean % damage 7 daa Stellaria media ([10]; adjuvant 1% w/v): 5% | mean % damage 14 daa Stellaria media ([10]; adjuvant 1% w/v): 0% | mean % damage 1 daa Stellaria media ([10]; adjuvant 1.5% w/v): 10% | mean % damage 7 daa Stellaria media ([10]; adjuvant 1.5% w/v): 10% | mean % damage 14 daa Stellaria media ([10]; adjuvant 1.5% w/v): 0% | mean % damage 1 daa Stellaria media ([10]; adjuvant 2% w/v): 10% | mean % damage 7 daa Stellaria media ([10]; adjuvant 2% w/v): 30% | mean % damage 14 daa Stellaria media ([10]; adjuvant 2% w/v): 10% | mean % damage 1 daa Stellaria media ([10]; adjuvant 2.5% w/v): 20% | mean % damage 7 daa Stellaria media ([10]; adjuvant 2.5% w/v): 40% | mean % damage 14 daa Stellaria media ([10]; adjuvant 2.5% w/v): 20% | mean % damage 1 daa Poa annua ([11]; adjuvant 1% w/v): 20% | mean % damage 7 daa Poa annua ([11]; adjuvant 1% w/v): 30% | mean % damage 14 daa Poa annua ([11]; adjuvant 1% w/v): 10% | mean % damage 1 daa Poa annua ([11]; adjuvant 1.5% w/v): 20% | mean % damage 7 daa Poa annua ([11]; adjuvant 1.5% w/v): 40% | mean % damage 14 daa Poa annua ([11]; adjuvant 1.5% w/v): 10% | mean % damage 1 daa Poa annua ([11]; adjuvant 2% w/v): 40% | mean % damage 7 daa Poa annua ([11]; adjuvant 2% w/v): 50% | mean % damage 14 daa Poa annua ([11]; adjuvant 2% w/v): 15% | mean % damage 1 daa Poa annua ([11]; adjuvant 2.5% w/v): 40% | mean % damage 7 daa Poa annua ([11]; adjuvant 2.5% w/v): 50% | mean % damage 14 daa Poa annua ([11]; adjuvant 2.5% w/v): 0% | course of damage over time (recovery) [12]: the level of damage decreases from day 13 onwards | % Damage 1 daa Grass mix [13]: 20% | % Damage 6 daa Grass mix [13]: 50% | % Damage 13 daa Grass mix [13]: 40% | % Damage 20 daa Grass mix [13]: 40%

— patent publication US20130252816A1, “HERBICIDAL COMPOSITION AND USE THEREOF” (Syngenta Crop Protection LLC, priority 2010, published 2013)
